{"source": "patent US4005076A", "about": "“Hydrazones of 3-formylrifamycin SV” (Gruppo Lepetit S.p.A., priority 1971, dated 1977)", "key": {"[1]": {"biological_target": "T1, mouse embryo RNA-polymerase I (ME-RNA-P1) (Mus musculus, UniProt O35134+P70700)", "T1 construct": "mouse embryo RNA-polymerase I (ME-RNA-P1); endogenous in cells; host or cells: mouse embryo cells", "assay": "effect on mouse embryo RNA-polymerase I", "type": "biochemical", "text": "(§1) Calf-Thymus DNA. Me-RNA-P1 and ME-RNA-P2 : Single Stranded"}, "[2]": {"test_system": "mouse embryo DNA-polymerase II (ME-DNA-P2)", "assay": "effect on mouse embryo DNA-polymerase II", "type": "biochemical", "conditions": "activated Calf-Thymus DNA", "text": "(§2) Oligo dT.Poly rA. ME-DNA-P1 and ME-DNA-p2 : activated"}, "tumor virus polymerases": {"test_system": "tumor virus polymerases", "assay": "inhibition of tumor virus polymerases, native template", "type": "biochemical", "conditions": "about 5 μg/ml", "protocol": "(§3) DNA polymerase assays were carried out in a final volume of 100 μl. The assay mixture contained Tris-HCl buffer, pH 8.3, 50 mM; MgAc, 6.0 mM; dithiothreitol, 8.0 mM; NaCl, 60 mM. Adjustment of pH was carried out after addition of inhibitors which were previously dissolved in dimethylsulfoxide (DMSO). The final concentration of DMSO was 0.5% and all control samples included this amount of DMSO. An enzyme concentration that catalyzes an incorporation of approximately 1.0 pmole/hr was used in the assay. The enzyme was in most cases preincubated for 5 minutes with the inhibitor. […]\n(§4) In these cases, reactions were initiated by adding enzyme to the complete reaction mixture, which included the inhibitor. […] The products were collected on Millipore filter, washed extensively with 5% TCA and 1 ml. of DMSO-ethanol 0.1 M NaCl mixture (0.5:70:29.5), dried and counted in 2 ml. of BBS3 (Beckman) and 10 ml. of liquifluor (New England Nuclear) in a Packard liquid scintillation counter."}, "normal polymerases": {"test_system": "normal polymerases", "assay": "effect on normal polymerases, native template", "type": "biochemical", "conditions": "about 5 μg/ml", "protocol": "as §3, §4"}, "[3]": {"biological_target": "T2, sarcoma virus DNA-polymerases (SSV-DNA-P) (Woolly monkey sarcoma virus, UniProt P03359)", "T2 construct": "sarcoma virus DNA-polymerases (SSV-DNA-P)", "T2 sequence (P03359 642-1310)": "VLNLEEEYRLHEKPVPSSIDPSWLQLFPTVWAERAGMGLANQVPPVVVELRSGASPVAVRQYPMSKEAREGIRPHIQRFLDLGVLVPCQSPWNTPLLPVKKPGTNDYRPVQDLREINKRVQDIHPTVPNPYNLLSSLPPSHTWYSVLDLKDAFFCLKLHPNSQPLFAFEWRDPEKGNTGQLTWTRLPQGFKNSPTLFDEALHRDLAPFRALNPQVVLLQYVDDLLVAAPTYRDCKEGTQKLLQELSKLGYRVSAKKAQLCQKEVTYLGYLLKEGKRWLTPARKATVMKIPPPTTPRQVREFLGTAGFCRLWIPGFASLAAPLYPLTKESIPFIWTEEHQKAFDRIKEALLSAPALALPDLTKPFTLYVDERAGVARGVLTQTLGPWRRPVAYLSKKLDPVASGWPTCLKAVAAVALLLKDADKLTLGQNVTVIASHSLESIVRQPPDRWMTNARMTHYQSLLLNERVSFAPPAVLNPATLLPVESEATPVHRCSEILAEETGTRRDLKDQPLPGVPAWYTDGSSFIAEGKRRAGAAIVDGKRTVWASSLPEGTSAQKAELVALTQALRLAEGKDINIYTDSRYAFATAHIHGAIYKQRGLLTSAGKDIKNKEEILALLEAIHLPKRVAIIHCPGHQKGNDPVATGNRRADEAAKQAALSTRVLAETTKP", "assay": "effect on activity of SSV-polymerase", "type": "biochemical", "conditions": "template Oligo dT.Poly rA", "text": "Templates used in the Enzymatic Assays were the following: SSV-DNA-P: […]"}, "[4]": {"test_system": "mouse embryo DNA-polymerase I (ME-DNA-P1)", "assay": "effect on mouse embryo DNA-polymerase I", "type": "biochemical", "conditions": "activated Calf-Thymus DNA", "text": "as §2"}, "[5]": {"biological_target": "T3, RNA-dependent DNA polymerase of murine sarcoma virus (Moloney murine leukemia virus, UniProt P03355)", "T3 construct": "The virion polymerase was purified 20-40 fold; made in house; host or cells: virions from MSV (Moloney) transformed rat 78A1 cells and MSV (Harvey) transformed mouse MEH cells; disrupted virus or polymerase purified 20-40 fold", "assay": "inhibition of RNA-dependent DNA polymerase of murine sarcoma virus (3H-dTTP incorporation)", "type": "biochemical", "conditions": "at a concentration of 2-100 μg/ml or less; 60 min", "protocol": "The inhibiting activity of the inventive compounds has been tested on RNA-dependent DNA polymerase of murine sarcoma virus (endogenous) and RNA-dependent DNA polymerase activity of purified enzymes. The inhibition was tested according to the methods described by C. Gurgo et al., Nature, New Biology, 229, 111, 1971. The effect of different concentrations of drugs on polymerase activity was determined by following ^3 H-dTTP (tritiated thymine deoxyriboside triphosphate) incorporation into the insoluble fraction. A typical example of the experimental procedures is the following.\nVirus was isolated and purified from murine sarcoma virus (Moloney isolate) transformed rat cells (78Al cells) and murine sarcoma virus (Harvey isolate) transformed mouse cells (MEH cells) as previously described (Green et al., Proc. Nat. Acad. Sci. USA 67, 385-393, 1970, Rokutanda et al., Nature, 227, 1026-1028, 1970). The virion polymerase was purified 20-40 fold by incubation of purified virus with 0.5% NP-40 (nonidet P-40) in 0.1 M NaCl, 0.01 M Tris buffer (pH 7.6), 0.001 M EDTA for 5 minutes at room temperature and zonal centrifugation in 15-30% sucrose gradients in 10 mM sodium phosphate buffer (pH 7.4), 2.5 mM MgCl2, 10 mM dithiothreitol, and 5% glycerol for 24 hours at 38,000 rpm in a Spinco SW41 rotor. The peak fractions of enzyme activity (13-17) of 22 fractions collected, were pooled and stored at -70° C. in 30% glycerol.\nEnzyme incubation was performed for 1 hour at 37° C. in 100 μl of reaction mixture containing 40 mM Tris buffer (pH 8.0), 5 mM dithiothreitol, 30 mM NaCl, 2.5 mM MgCl2, 0.1 mM dATP, dGTP, dCTP, and 10 μCi of ^3 H-dTTP (12-18 Ci/mmole) as described by Green et al. in Proc. Nat. Acad. Sci. USA 67, 385-393, 1970. The reaction was terminated by the addition of 150 μl of 1N perchloric acid. Calf thymus DNA (100 μg) was added as carrier; the radioactive DNA product was processed as described in the two papers mentioned above. Endogenous RNA-dependent DNA-polymerase activity was measured after the addition of 0.01% NP-40 to purified virus at the time of assay. The DNA-polymerase activity of purified viral polymerase was measured with 2 μg of poly d (A-T) as template and no NP-40.\nRifamycin derivatives of this invention were dissolved in dimethylsulfoxide (DMSO) at a concentration of 5 mg/ml and stored at 4° C. Inhibition of the endogenous RNA-dependent DNA-polymerase activity was tested by adding 2 μl of derivative appropriately diluted in DMSO or 2 μl of DMSO (control) to the assay mixture prior to addition to disrupted virus which contained 15 to 30 μg of viral protein. Enzyme incubation was performed for 60 minutes at 37° C. Inhibition of purified enzyme was tested by pre-incubation of 2 μl of derivative or DMSO with 30 μl of enzyme (1 to 2 μg of protein) for 10 minutes at 37° C.; then 70 μl of substrate mixture were added and the mixture further incubated and processed as described above."}, "[6]": {"test_system": "Staphylococcus aureus strain which is resistant to rifampicin (Staph. aureus Tour)", "assay": "in vitro minimal inhibitory concentration against rifampicin-resistant Staphylococcus aureus strain", "type": "cell-based", "conditions": "Staphylococcus aureus, read-out: Minimal inhibitory concentration", "protocol": "In particular, compounds illustrative of the invention at concentrations of about 10 to 20 μg/ml or less inhibit the growth of a Staph. aureus Tour strain resistant to rifampicin.\nOne of the most important characteristics of the new hydrazones is their activity against rifampicin-resistant Staphylococcus aureus strains. Rifampicin, that is 3-(4-methyl-1-piperazinyl)iminomethylrifamycin SV, disclosed in U.S. Pat. No. 3,342,810, is the most known and widely used rifamycin derivative in therapeutic practice.\nThe data of the new compounds are compared with those of representative hydrazones disclosed in U.S. Pat. No. 3,342,810."}, "[7]": {"biological_target": "T4, mouse embryo RNA-polymerase II (ME-RNA-P2) (Mus musculus, UniProt P08775+Q8CFI7)", "T4 construct": "mouse embryo RNA-polymerase II (ME-RNA-P2); endogenous in cells; host or cells: mouse embryo cells", "assay": "effect on mouse embryo RNA-polymerase II", "type": "biochemical", "text": "as §1"}}, "data": [{"smiles": "COC1C=COC2(C)Oc3c(C)c(O)c4c(O)c(c(C=NNc5ccc([N+](=O)[O-])cc5[N+](=O)[O-])c(O)c4c3C2=O)NC(=O)C(C)=CC=CC(C)C(O)C(C)C(O)C(C)C(OC(C)=O)C1C", "note": "(centres unmarked) [Example 12]", "values": [{"measurement": "remaining activity at 10 µg", "setting": "[1]; read-out: % Control Activity of ME-RNA-P1 at 10μg", "result": 115, "unit": "%"}, {"measurement": "remaining activity at 100 µg", "setting": "[1]; read-out: % Control Activity of ME-RNA-P1 at 100μg", "result": 100, "unit": "%"}, {"measurement": "% Control Activity of ME-DNA-P2 at 5μg", "setting": "[2]; 5μg", "result": 72, "unit": "%"}, {"measurement": "% Control Activity of ME-DNA-P2 at 10μg", "setting": "[2]; 10μg", "result": 83, "unit": "%"}, {"measurement": "% Control Activity of ME-DNA-P2 at 100μg", "setting": "[2]; 100μg", "result": 46, "unit": "%"}, {"measurement": "inhibition of tumor virus polymerases", "setting": "tumor virus polymerases", "result": 44, "unit": "%"}, {"measurement": "activity on normal polymerases", "setting": "normal polymerases", "result": "practically inactive"}, {"measurement": "% Control Activity of SSV-DNA-P at 5μg", "setting": "[3]; 5μg", "result": 44, "unit": "%"}, {"measurement": "% Control Activity of SSV-DNA-P at 10μg", "setting": "[3]; 10μg", "result": 34, "unit": "%"}, {"measurement": "% Control Activity of SSV-DNA-P at 100μg", "setting": "[3]; 100μg", "result": 1, "unit": "%"}, {"measurement": "% Control Activity of ME-DNA-P1 at 5μg", "setting": "[4]; 5μg", "result": 102, "unit": "%"}, {"measurement": "% Control Activity of ME-DNA-P1 at 10μg", "setting": "[4]; 10μg", "result": 83, "unit": "%"}, {"measurement": "% Control Activity of ME-DNA-P1 at 100μg", "setting": "[4]; 100μg", "result": 11, "unit": "%"}, {"measurement": "incorporation of H3-dTTP relative to that found in the control tests", "setting": "[5]", "result": "less than 10%"}, {"measurement": "MIC", "setting": "[6]", "result": 10, "unit": "µg/mL"}, {"measurement": "remaining activity at 10 µg", "setting": "[7]; read-out: % Control Activity of ME-RNA-P2 at 10μg", "result": 92, "unit": "%"}, {"measurement": "remaining activity at 100 µg", "setting": "[7]; read-out: % Control Activity of ME-RNA-P2 at 100μg", "result": 72, "unit": "%"}]}]}
